Experimental findings from US9980948B2, “Azaindole derivative having AMPK-activating activity” (Shionogi & Co., Ltd., priority 2014, dated 2018) are described below.

Where two headings read alike, the source gives them in different places.

One may read the Emax as the greatest response seen or fitted, relative to the assay's reference.

The test has as its target T1, Human AMPK α2β2γ1 (Homo sapiens, UniProt O43741+P54646).
T1 construct: The full length cDNAs of human AMPK β2 (NM_005399.3) and human AMPK α2 (NM_006252.3); The full length cDNAs of human AMPK β2 (NM_005399.3); the full length cDNA of human AMPK γ1 (NM_002733.3) had been inserted into pET28b(+); 6xHis (N); made in house; host or cells: Escherichia coli BL21 CodonPlus (DE3)-RTL (AMPK); BL21 Star (DE3) (CaMKKβ)
As to the kind of experiment: Test Example 2: evaluation of an activator for AMP-activated protein kinase (AMPK), human AMPK α2β2γ1 phosphorylated with CaMKK2, FL-Peptide 7 mobility shift. Format: biochemical. The settings on record: for Emax: read-out: Emax (maximum rate of increase in activity within the measurement range). As for the experimental part: The full length cDNAs of human AMPK β2 (NM_005399.3) and human AMPK α2 (NM_006252.3) were inserted into the MCS1 and MCS2 of the pETDuet-1 vector to prepare a human AMPK β2 and human AMPK α2 (6× His tag at the 5′ terminus) expressing plasmid. The plasmid was cotransfected with an expression plasmid, in which the full length cDNA of human AMPK γ1 (NM_002733.3) had been inserted into pET28b(+), into BL21 CodonPlus (DE3)-RTL to obtain an expression strain. The expression strain was cultured in TB medium, followed by induction with 0.5 mM IPTG, and cultured at 25° C. for 3 hours and then harvested.
An expression vector, in which the full length cDNA of human CAMKK β (NM_172226.1) had been inserted into pGEX-6P-3, was transfected into BL21 Star (DE3). The expression strain was cultured in TB medium, followed by induction with 0.5 mM IPTG, and cultured at 25° C. for 3 hours and then harvested.
Thus, phosphorylation treatment was carried out as pretreatment.
Human AMPK α2β2γ1 in an amount to give a conversion rate of approximately 10% by reaction for 2 hours, and CaMKK2 in an amount capable of sufficiently imparting activity to AMPK for one hour were mixed in a buffer solution consisting of a 50 mM HEPES-NaOH buffer solution (pH 7.0), 100 mM NaCl, 5 mM magnesium chloride, 0.1% bovine serum albumin, 0.2 mM sodium orthovanadate(V), 1 mM ethylene glycol-bis(2-aminoethyl ether)-N,N,N′,N′-tetraacetic acid (EGTA), 5 mM disodium β-glycerophosphate, 1 mM dithiothreitol and 0.2 mM ATP, and the obtained liquid was left to stand at 25° C. for 1 to 1.5 hours to sufficiently phosphorylate AMPK.
The obtained liquid was left to stand for 10 minutes.
The obtained liquid was allowed to react at 25° C. for 2 hours, and 10 μl of 20 mM EDTA was then added thereto to stop the reaction.
To detect phosphorylated fluorescent substrates, the reaction liquid was applied to a measuring device, LabChip EZ Reader II manufactured by Caliper Life Science, Inc., for detecting fluorescence by using differences in mobility due to differences in charge. The setting conditions for the device were pressure, −1.5 PSI; upstream voltage, −2250 V; downstream voltage, −400 V; post sample buffer sip time, 40 seconds; final delay, 120 seconds; and peak order, Product First.
A conversion rate was calculated from the peak heights of the resulting substrate and product. The conversion rate when not containing a compound was used as a control, and a concentration dependent curve was made by plotting the rate of increase in activity to the control at each concentration of a compound.

Where [1] appears, read: human AMPK α2β2γ1, 0.2 mM ATP final, 25° C., 2 hours.
The mark [2] stands for this setting: human AMPK α2β2γ1, relative to control (100%).

T1 sequence (P54646 whole entry): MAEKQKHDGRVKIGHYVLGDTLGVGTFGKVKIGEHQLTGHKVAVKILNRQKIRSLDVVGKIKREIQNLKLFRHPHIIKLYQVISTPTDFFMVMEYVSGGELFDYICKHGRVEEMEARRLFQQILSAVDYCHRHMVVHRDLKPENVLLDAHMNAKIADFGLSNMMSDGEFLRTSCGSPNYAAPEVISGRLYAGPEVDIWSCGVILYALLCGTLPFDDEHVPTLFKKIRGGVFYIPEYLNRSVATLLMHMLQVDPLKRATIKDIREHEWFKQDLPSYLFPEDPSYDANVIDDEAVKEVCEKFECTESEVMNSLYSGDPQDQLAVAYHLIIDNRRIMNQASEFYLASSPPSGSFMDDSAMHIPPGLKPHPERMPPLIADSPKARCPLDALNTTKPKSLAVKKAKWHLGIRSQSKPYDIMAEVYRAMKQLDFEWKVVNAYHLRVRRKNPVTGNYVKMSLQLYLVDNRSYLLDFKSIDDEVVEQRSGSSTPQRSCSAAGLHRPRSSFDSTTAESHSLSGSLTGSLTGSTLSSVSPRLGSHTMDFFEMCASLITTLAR
T1 sequence (O43741 whole entry): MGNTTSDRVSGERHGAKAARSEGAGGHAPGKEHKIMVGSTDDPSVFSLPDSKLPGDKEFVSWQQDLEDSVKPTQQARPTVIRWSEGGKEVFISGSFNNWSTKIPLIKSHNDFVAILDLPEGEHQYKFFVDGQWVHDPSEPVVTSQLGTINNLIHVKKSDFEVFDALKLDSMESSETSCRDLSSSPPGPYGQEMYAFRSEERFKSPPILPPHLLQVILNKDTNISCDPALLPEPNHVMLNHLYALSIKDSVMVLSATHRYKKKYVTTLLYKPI
T1 sequence (P54619 whole entry partner): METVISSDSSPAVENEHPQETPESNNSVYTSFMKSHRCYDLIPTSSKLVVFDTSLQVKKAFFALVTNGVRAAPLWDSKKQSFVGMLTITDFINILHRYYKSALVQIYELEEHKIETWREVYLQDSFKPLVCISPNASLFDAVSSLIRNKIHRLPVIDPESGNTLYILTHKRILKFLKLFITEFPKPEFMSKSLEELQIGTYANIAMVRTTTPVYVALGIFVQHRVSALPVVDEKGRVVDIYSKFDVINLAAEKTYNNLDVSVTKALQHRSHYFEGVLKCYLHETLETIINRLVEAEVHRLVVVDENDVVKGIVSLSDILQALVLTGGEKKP

With `N#Cc1c(O[C@@H]2CO[C@H]3[C@@H]2OC[C@H]3O)[nH]c2cc(Cl)c(OCc3c(F)cccc3F)nc12` [Compound I-1-1], under setting [1], the “EC150 (compound concentration showing 150% relative to the control (100%))” value was 330 nM. Moreover, under setting [2], the Emax was 660%.
The like results for `N#Cc1cc2[nH]c(O[C@@H]3CO[C@H]4[C@@H]3OC[C@H]4O)cc2nc1-c1ccc(N2CCOCC2)cc1` [Compound I-1-4] were, in that order, 8.3 nM and 849%.
For `O[C@@H]1CO[C@H]2[C@@H]1OC[C@H]2Oc1cc2nc(-c3c(F)cc(C4=CCOCC4)cc3F)c(F)cc2[nH]1` [Compound I-1-6], the “EC150 (compound concentration showing 150% relative to the control (100%))” value under setting [1] was found to be 2 nM. The Emax under setting [2] worked out at 647%.
With `N#Cc1c(O[C@@H]2CO[C@H]3[C@@H]2OC[C@H]3O)[nH]c2cc(Cl)c(-c3ccc(-c4ccccc4)cc3)nc12` [Compound I-1-7], the “EC150 (compound concentration showing 150% relative to the control (100%))” value under setting [1] is 59 nM. Besides, the Emax under setting [2] is 805%.
On to `O=C(O)C1CC=C(c2ccc(-c3nc4cc(O[C@H]5CCOC5)[nH]c4cc3Cl)cc2)CC1` (stereo partly drawn) [Compound I-1-8], for which the “EC150 (compound concentration showing 150% relative to the control (100%))” value under setting [1] is reported as 4.1 nM. Besides, the Emax under setting [2] was determined as 338%.
Turning to `O=C(CO)N1CC=C(c2cc(F)c(-c3nc4cc(O[C@@H]5CO[C@H]6[C@@H]5OC[C@H]6O)[nH]c4cc3Cl)c(F)c2)CC1` [Compound I-1-10], the “EC150 (compound concentration showing 150% relative to the control (100%))” value under setting [1] is reported as 1.8 nM. Moreover, the Emax under setting [2] came to 751%.
On to `O[C@@H]1CO[C@H]2[C@@H]1OC[C@H]2Oc1[nH]c2cc(Cl)c(-c3ccc(N4CCOCC4)cc3)nc2c1Cl` [Compound I-1-11], for which, under setting [1], the “EC150 (compound concentration showing 150% relative to the control (100%))” value was 3.9 nM. Also, the Emax under setting [2] came to 770%.
For the molecule `N#Cc1c(O[C@@H]2CO[C@H]3[C@@H]2OC[C@H]3O)[nH]c2cc(Cl)c(-c3ccc(C4=CCN(C(=O)CO)CC4)cc3)nc12` [Compound I-1-12], under setting [1], the “EC150 (compound concentration showing 150% relative to the control (100%))” value stood at 23 nM. The Emax under setting [2] stood at 779%.
Regarding `O[C@@H]1CO[C@H]2[C@@H]1OC[C@H]2Oc1[nH]c2cc(Cl)c(-c3c(F)cc(C4=CCOCC4)cc3F)nc2c1Cl` [Compound I-1-15], under setting [1], the “EC150 (compound concentration showing 150% relative to the control (100%))” value was 53 nM. Besides, the Emax under setting [2] came to 680%.
With `CC(C)(C(=O)O)[C@H]1CC[C@H](Oc2cc3nc(-c4c(F)cc(N5CCOCC5)cc4F)c(Cl)cc3[nH]2)CC1` [Compound I-1-16], under setting [1], the “EC150 (compound concentration showing 150% relative to the control (100%))” value is 810 nM. Besides, the Emax under setting [2] came to 204%.
Take `OC[C@@H]1C[C@H](Oc2cc3nc(-c4c(F)cc(N5CCOCC5)cc4F)c(Cl)cc3[nH]2)CO1` [Compound I-1-18]: the “EC150 (compound concentration showing 150% relative to the control (100%))” value under setting [1] is given as 22 nM. For the same molecule, the Emax under setting [2] is 776%.
As to `O=C(O)C1CC=C(c2ccc(-c3nc4c(Cl)c(O[C@@H]5CO[C@H]6[C@@H]5OC[C@H]6O)[nH]c4cc3Cl)cc2)CC1` (stereo partly drawn) [Compound I-1-20], under setting [1], the “EC150 (compound concentration showing 150% relative to the control (100%))” value was 2.9 nM. The Emax under setting [2] stood at 746%.
In the case of `O=C(O)C1CC=C(c2cc(F)c(-c3nc4cc(O[C@H]5CCOC5)[nH]c4cc3Cl)c(F)c2)CC1` (stereo partly drawn) [Compound I-1-23], under setting [1], the “EC150 (compound concentration showing 150% relative to the control (100%))” value was found to be 11 nM. The Emax under setting [2] is 341%.
With `O[C@@H]1CO[C@H]2[C@@H]1OC[C@H]2Oc1cc2nc(-c3ccc(N4CCOCC4)cc3F)c(Cl)cc2[nH]1` [Compound I-1-25], the “EC150 (compound concentration showing 150% relative to the control (100%))” value under setting [1] is reported as 11 nM. Further, the Emax under setting [2] is 768%.
With `CN(C)CCOc1ccc(-c2ccc(-c3nc4c(C#N)c(O[C@@H]5CO[C@H]6[C@@H]5OC[C@H]6O)[nH]c4cc3Cl)cc2)cc1` [Compound I-1-37], the “EC150 (compound concentration showing 150% relative to the control (100%))” value under setting [1] was determined as 6 nM. Besides, under setting [2], the Emax was 859%.
Regarding `COc1cccc(-c2ccc(-c3nc4c(C#N)c(O[C@@H]5CO[C@H]6[C@@H]5OC[C@H]6O)[nH]c4cc3Cl)cc2)c1O` [Compound I-1-38], the “EC150 (compound concentration showing 150% relative to the control (100%))” value under setting [1] came to 1.5 nM. Besides, the Emax under setting [2] was determined as 841%.
For `O[C@@H]1CO[C@H]2[C@@H]1OC[C@H]2Oc1cc2nc(-c3ccc(N4CCOCC4)cc3)c(F)cc2[nH]1` [Compound I-1-39], under setting [1], the “EC150 (compound concentration showing 150% relative to the control (100%))” value is listed as 5.3 nM. Further, the Emax under setting [2] stood at 788%.
For `CC(C)(C(=O)O)[C@H]1CC[C@H](Oc2cc3nc(-c4ccc(N5CC[C@@H](O)C5)cc4)c(Cl)cc3[nH]2)CC1` [Compound I-1-43], the “EC150 (compound concentration showing 150% relative to the control (100%))” value under setting [1] is 98 nM. For the same molecule, the Emax under setting [2] is 302%.
For the molecule `O[C@@H]1CO[C@H]2[C@@H]1OC[C@H]2Oc1[nH]c2cc(F)c(-c3ccc(C4=CCOCC4)cc3)nc2c1Cl` [Compound I-1-45], the “EC150 (compound concentration showing 150% relative to the control (100%))” value under setting [1] is 13 nM. For the same molecule, the Emax under setting [2] is 718%.
In the case of `O=C(CO)N1CC=C(c2ccc(-c3nc4cc(O[C@@H]5CO[C@H]6[C@@H]5OC[C@H]6O)[nH]c4cc3F)cc2)CC1` [Compound I-1-50], the “EC150 (compound concentration showing 150% relative to the control (100%))” value under setting [1] amounted to 2.4 nM. In addition, the Emax under setting [2] is 827%.
For `O=C(O)C1CC=C(c2ccc(-c3nc4c(Cl)c(O[C@@H]5CO[C@H](CO)C5)[nH]c4cc3Cl)cc2)CC1` (stereo partly drawn) [Compound I-1-55], the “EC150 (compound concentration showing 150% relative to the control (100%))” value under setting [1] stood at 54 nM. The maximum response (Emax) under setting [2] is 689%.
Take `N#Cc1c(O[C@@H]2CO[C@H]3[C@@H]2OC[C@H]3O)[nH]c2cc(Cl)c(-c3ccc(-c4ccc(-n5cncn5)cc4)cc3)nc12` [Compound I-1-58]: the “EC150 (compound concentration showing 150% relative to the control (100%))” value under setting [1] is 3.8 nM. Also, under setting [2], the Emax is 836%.
For `O[C@@H]1CO[C@H]2[C@@H]1OC[C@H]2Oc1[nH]c2cc(Cl)c(-c3ccc(C4(O)CCC4)cc3)nc2c1Cl` [Compound I-1-62], the “EC150 (compound concentration showing 150% relative to the control (100%))” value under setting [1] is listed as 5.7 nM. In addition, the Emax under setting [2] was 851%.
Take `C/C(=C\CNC(=O)CO)c1ccc(-c2nc3c(Cl)c(O[C@@H]4CO[C@H]5[C@@H]4OC[C@H]5O)[nH]c3cc2Cl)cc1` [Compound I-1-63]: the “EC150 (compound concentration showing 150% relative to the control (100%))” value under setting [1] was found to be 6.3 nM. Further, the Emax under setting [2] turned out to be 791%.
In the case of `O[C@@H]1CO[C@H]2[C@@H]1OC[C@H]2Oc1cc2nc(-c3ccc(N4CCOCC4)cc3)c(C(F)(F)F)cc2[nH]1` [Compound I-2-2], the “EC150 (compound concentration showing 150% relative to the control (100%))” value under setting [1] is 38 nM. The “Emax (maximum rate of increase in activity within the measurement range)” value under setting [2] came to 511%.
Regarding `O[C@@H]1CO[C@H]2[C@@H]1OC[C@H]2Oc1cc2nc(-c3ccc(N4CCOCC4)cc3)c(Cl)c(F)c2[nH]1` [Compound I-2-3], the “EC150 (compound concentration showing 150% relative to the control (100%))” value under setting [1] turned out to be 6.9 nM. Further, the Emax under setting [2] was found to be 508%.
For `N#Cc1c(Cl)c(-c2ccc(N3CCOCC3)cc2)nc2cc(O[C@@H]3CO[C@H]4[C@@H]3OC[C@H]4O)[nH]c12` [Compound I-2-7], the “EC150 (compound concentration showing 150% relative to the control (100%))” value is given as 36 nM and the “Emax (maximum rate of increase in activity within the measurement range)” value was 322%.
For `O[C@@H]1CO[C@H]2[C@@H]1OC[C@H]2Oc1[nH]c2cc(Cl)c(-c3ccc(N4CCOCC4)cc3)nc2c1F` [Compound I-2-8], under setting [1], the “EC150 (compound concentration showing 150% relative to the control (100%))” value was found to be 8.9 nM. For the same molecule, under setting [2], the “Emax (maximum rate of increase in activity within the measurement range)” value was 447%.
With `O[C@@H]1CO[C@H]2[C@@H]1OC[C@H]2Oc1[nH]c2cc(Cl)c(-c3ccc(N4CCOCC4)cc3)nc2c1Br` [Compound I-2-9], the “EC150 (compound concentration showing 150% relative to the control (100%))” value under setting [1] amounted to 66 nM. The “Emax (maximum rate of increase in activity within the measurement range)” value under setting [2] is recorded as 395%.
As for `O[C@@H]1CO[C@H]2[C@@H]1OC[C@H]2Oc1[nH]c2cc(C(F)(F)F)c(-c3ccc(N4CCOCC4)cc3)nc2c1F` [Compound I-2-10], the “EC150 (compound concentration showing 150% relative to the control (100%))” value under setting [1] is listed as 49 nM. The “Emax (maximum rate of increase in activity within the measurement range)” value under setting [2] is 506%.
